Legend:
[1] = test system: phosphorylation of H2AX in U251 cells; experiment: Phosphorylation of γ-H2AX assay (immunoblot), U251; type: cell-based, human; conditions: U251, 16 hours
Procedure: U251 or normal human astrocyte cells were plated in six-well plates and incubated with various concentrations of QBS10072S for 16 hours. Proteins were extracted from cells using cell lysis buffer (Cell Signaling Technologies, Danvers, MA) supplemented with proteinase and a phosSTOP phosphatase inhibitor cocktail (Sigma-Aldrich, St. Louis, MO). Proteins were separated by SDS-PAGE and transferred onto polyvinylidene difluoride membranes, which were then probed with primary antibodies followed by horseradish peroxidase-conjugated secondary antibody, and visualized by ECL (Thermo-Fischer, S. San Francisco, CA). Antibodies specific for γH2AX (#2577), LAT1 (#5347), and beta-actin (#4970) were obtained from Cell Signaling Technologies.

[2] = test system: U87-MGMT cells; experiment: WST1 cell viability assay, U87-MGMT; type: cell-based; conditions: Homo sapiens, read-out: LC50 (μM ± SD)
Procedure: In vitro activities of QBS10072S and temozolomide (TMZ) in U87 and U87-MGMT cells were assessed using the WST1 cell viability assay in 96-well plates in which 500/well of cells were plated in sextuplets for each condition. To avoid cell loss, the following washing and medium removing procedures were all done using a P200 pipet without vacuum aspiration. For QBS10072S treatment, cells were washed with PBS the next day and incubated with 50 μL of various concentrations of QBS10072S in PBS for 1 hour at 37°C. After incubation, 150 μL of growth medium was added to each well. The medium was subsequently changed every two days until day 7. For TMZ treatment, cells were treated with 100 μL of various concentrations of TMZ in a growth medium for 2 days. After incubation, cells were put back in a normal growth medium and continued culturing for five days. In the end, 10 μL of WST1 reagent was added to each well and incubated at 37°C for 4h before subjecting to plate reading at 450 nm and 690nm using an EnSpire multimode plate reader (PerkinElmer). Background (OD690nm) was subtracted and data were normalized to the control. LC50s were determined by non-linear regression using GraphPad Prism (GraphPad Software Inc., San Diego, California)

[3] = test system: phosphorylation of H2AX in LN229 cells; experiment: Phosphorylation of γ-H2AX assay (immunoblot), LN229; type: cell-based, human; conditions: LN229, 16 hours
[4] = test system: LN229 cells; experiment: Cell viability assay (CellTiter-Glo), LN229; type: cell-based; conditions: Homo sapiens, LN-229; Cell Line: LN229; read-out: LC50 (μM ± SD)
Procedure: (§1) In vitro activity of QBS10072S was assessed using a modified clonogenic cell viability assay in 96-well clear-bottom plates. For the LLC-PK1 inducible LAT1-expressing cell line, 1000 cells/well were plated and cells were treated with either butyrate alone (non-induced) or with both butyrate and doxycycline (induced) as described above. For GBM cell lines, 2000 cells/well were plated. On day 2 (GBM) or day 3 (LLC-PK1) after original plating, cells were washed twice with PBS and incubated with 50 μL of various concentrations of QBS10072S in PBS in at least quadruplicate. After 30 minutes at 37°C, 200 μL of growth medium was added to each well. Clonal populations were allowed to grow until the control wells (mock treatment) were near confluence (7 to 10 days). At this point, 170 μL media were removed and 60 μL CellTiter-Glo® (Promega, Madison, WI) were added to each well. Plates were placed on an orbital shaker for three minutes to lyse the cells and then incubated for an additional 10 minutes at RT to stabilize the luminescent signal. Luminescence was recorded using an EnSpire® Multimode Plate Reader (Perkin Elmer). Background (luminescence from wells incubated with 100 μM melphalan or lomustine) was subtracted and data were normalized to the control. EC50s were determined by non-linear regression using GraphPad Prism.

[5] = test system: 42MGBA cells; experiment: Cell viability assay (CellTiter-Glo), 42MGBA; type: cell-based; conditions: Homo sapiens; Cell Line: 42M6BA; read-out: LC50 (μM ± SD)
Procedure: as §1

[6] = test system: GBM cell lines; experiment: Cell viability assay (CellTiter-Glo), multiple GBM cell lines; type: cell-based; conditions: Homo sapiens; range over cell lines; read-out: EC50s, viability loss in multiple GBM cell lines
Procedure: as §1

[7] = molecular target: T1, hLAT1 (Homo sapiens, UniProt Q01650); experiment: Substrate transport inhibition, [3H]-gabapentin uptake in LLC-PK1 cells expressing hLAT1; type: cell-based
T1 construct: host or cells: LLC-PK1 (tetracycline-inducible, Invitrogen Gateway pT-REx System)
Procedure: Substrate transport inhibition studies were conducted with LLC-PK1 cells inducibly expressing either hLAT1 or hLAT2. Cells were plated in growth media with 1 μg/mL doxycycline at 30,000 cells/well in 96-well plates. Sixteen hours after plating, cells were treated with butyrate at a final concentration of 5 mM. The following day, cells were washed with PBS and incubated in the presence or absence of various concentrations of QBS10072S with 30,000 cpm/well of either [3H]-gabapentin (LAT1) or [3H]-leucine (LAT2) in PBS for 15 minutes at room temperature. The non-specific cell-bound activity was determined by the addition of 5 mM unlabeled gabapentin (LAT1) or leucine (LAT2). Unincorporated radioactivity was removed, and cells were washed three times with ice-cold PBS. Cells were lysed by adding scintillation fluid to each well, and cell-associated radioactivity was determined via scintillation counting using a multichannel 96-well plate reader (MicroBeta Trilux, Perkin Elmer, Waltham, MA). Data were expressed as the percent of specific radioactivity uptake in wells with no compound added. LC50s were determined by non-linear curve-fitting using GraphPad Prism (San Diego, CA).

T1 sequence (Q01650 whole entry): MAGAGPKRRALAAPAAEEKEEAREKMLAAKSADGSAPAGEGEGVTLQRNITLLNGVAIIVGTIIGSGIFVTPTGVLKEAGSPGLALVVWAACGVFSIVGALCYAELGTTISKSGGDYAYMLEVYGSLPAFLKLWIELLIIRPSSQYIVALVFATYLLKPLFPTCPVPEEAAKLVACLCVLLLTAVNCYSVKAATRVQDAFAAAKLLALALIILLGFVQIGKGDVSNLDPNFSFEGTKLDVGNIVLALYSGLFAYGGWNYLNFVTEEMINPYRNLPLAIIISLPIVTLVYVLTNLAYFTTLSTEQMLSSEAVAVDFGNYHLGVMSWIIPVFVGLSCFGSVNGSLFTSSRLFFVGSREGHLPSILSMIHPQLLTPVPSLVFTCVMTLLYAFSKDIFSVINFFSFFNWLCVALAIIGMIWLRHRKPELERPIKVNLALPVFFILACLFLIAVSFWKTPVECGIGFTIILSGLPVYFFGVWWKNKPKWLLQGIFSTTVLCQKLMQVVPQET
T1 sequence (P08195 102-630 partner): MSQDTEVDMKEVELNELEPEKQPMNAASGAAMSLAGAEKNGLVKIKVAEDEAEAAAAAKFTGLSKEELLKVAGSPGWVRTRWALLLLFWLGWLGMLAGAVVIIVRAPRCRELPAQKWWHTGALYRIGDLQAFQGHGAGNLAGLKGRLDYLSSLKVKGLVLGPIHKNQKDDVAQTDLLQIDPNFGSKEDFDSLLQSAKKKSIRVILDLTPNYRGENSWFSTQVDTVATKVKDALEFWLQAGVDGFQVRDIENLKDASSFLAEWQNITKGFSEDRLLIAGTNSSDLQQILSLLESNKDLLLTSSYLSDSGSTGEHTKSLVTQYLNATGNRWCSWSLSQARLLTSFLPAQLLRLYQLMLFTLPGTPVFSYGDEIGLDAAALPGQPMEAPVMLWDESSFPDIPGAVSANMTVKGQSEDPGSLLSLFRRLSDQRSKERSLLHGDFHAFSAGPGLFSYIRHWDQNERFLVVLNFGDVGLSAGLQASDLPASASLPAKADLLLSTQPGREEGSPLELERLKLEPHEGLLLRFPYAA

In the case of `Cc1ccc(N(CCCl)CCCl)cc1C[C@H](N)CC(=O)O` [QBS10072S, (+)-(3S)-amino-4-[5-[bis(2-chloroethyl)amino]-2-methyl-phenyl]butanoic acid], the “phosphorylation of H2AX” value [1] is reported as “dose-dependent phosphorylation of H2AX”, the CC50 [2] is reported as 12.8 ± 4.1 µM and the “phosphorylation of H2AX” value [3] is reported as “dose-dependent phosphorylation of H2AX”. For the same molecule, the CC50 [4] was 16 ± 2 µM, the CC50 [5] was 40 ± 10 µM and the EC50 [6] was 12 to 40 µM. For the same molecule, the IC50 ([7]; [3H]-gabapentin, LLC-PK1 LAT1-expressing cells, 15 minutes at room temperature, read-out: IC50, inhibition of substrate transport (LAT1)) was 21 µM and the “selectivity LAT1 vs. LAT2 in transport assays” value ([7]; ratio of IC50s LAT2/LAT1) was 50 fold.

— article PMC8482806, “A Novel Blood-Brain Barrier-Permeable Chemotherapeutic Agent for the Treatment of Glioblastoma” (Cureus, 2021)
